In publication PMC10218257, “Ionic Levothyroxine Formulations: Synthesis, Bioavailability, and Cytotoxicity Studies” (International Journal of Molecular Sciences, 2023):
Read-outs that look alike come from different tables or passages of the source.

Key:
[1] = Thermogravimetric analysis (TGA); type: physicochemical; settings: 5 °C min^−1, argon
Method: Thermogravimetric analyses were performed over a temperature range from room temperature to 500 °C in a thermogravimetric analyzer from Setaram Labsys EVO (France) with a weighing precision of ±0.01%. Each run was conducted at a heating rate of 5 °C min^−1, under a highly pure argon atmosphere purged at 50 mL min^−1, with a mass sample between 8 and 10 mg.

[2] = Permeability assays, Franz-type diffusion cell; design: Kd (partition coefficient): unit not given beside the values
Description: In this context, a polyethersulphone (PES-U) membrane was selected for the determination of these two parameters. The diffusion coefficient is associated with the amount of API diffused with time. Therefore, the increase in the diffusion coefficient is proportional to the speed of the drug's diffusion through the membrane. Another aspect to consider is that the solubility of the drug is proportional to the driving force. […] The chosen membrane was polyethersulphone (PES-U) with 150 μm thickness and 0.45 μm pore size (Sartorius Stedim Biotech, Göttingen, Germany), which was placed between the two compartments and held with a stainless-steel clamp. The receptor compartment was filled with PBS solution, and air bubbles were removed. […] The determination of the API diffused was performed by HPLC. The assays were performed with three replicates. […] The cumulative mass of drug diffused to the receptor compartment was determined taking into consideration the replacement of aliquots with fresh medium and the dilution derived from the addition of fresh buffer. […] According to a derived solution of Fick's law of diffusion, it is possible to determine the diffusion coefficient, D, of the API through the membrane. […] Cf and Ci are the final and initial concentrations in the receptor compartment, and Ct is the concentration in the receptor compartment at time t.

[3] = Solubility assays in water, PBS and serum; type: physicochemical
Method: All the assays were carried out in triplicate. The average and standard deviation were calculated for the three replicates.

[4] = system: L929 cells; assay: Cell viability assay (MTS, CellTiter 96); type: cell-based; settings: 24 h exposure, 50 and 75 ppm
Method: The biological effect of compounds was evaluated on the L929 cell line (DSMZ—German Collection of Microorganisms and Cell Culture GmbH). […] Cells only incubated with complete media were used as negative control and DMSO was chosen […]. […] The amount of formazan product was measured in a microplate reader (VICTOR Nivo TM, PerkinElmer, Waltham, MA, USA) at 490 nm, as absorbance is directly proportional to the number of viable cells in culture. Cell viability was expressed as the percentage of cells exposed to extracts vs. controls. Statistical analysis was performed using GraphPad Prism 7.00 software. A two-way ANOVA test was performed as well as Tukey’s multiple comparison test.

[5] = PES-U membrane, 37 °C, 50 mg L^−1, 8-hour assay

ΔTons, onset shifted to lower temperatures vs neat [Na][T4] [1]	Kd (partition coefficient) [2]	Permeability [2]	Solubility in PBS 37 °C ([3]; PBS, 37 °C)	Solubility in Serum 37 °C ([3]; serum, 37 °C)	Solubility in Water 25 °C ([3]; water, 25 °C)	Solubility in Water 37 °C ([3]; water, 37 °C)	Compound	onset of the major weight decrease (degradation) [1]	Cell viability / cytotoxicity [4]	Diffusion [2, 5]	Permeability [2, 5]
~ 30 °C	0.45	1.02 (×10^−5) cm s^−1	324 ± 4 µg/mL	321 ± 7 µg/mL	277 ± 34 µg/mL	379 ± 22 µg/mL	1-(2-Hydroxyethyl)-3-Methylimidazolium Levothyroxine [[C2OHMiM][T4]]				
							NC(Cc1cc(I)c(Oc2cc(I)c(O)c(I)c2)c(I)c1)C(=O)[O-].[Na+] (centres unmarked) [[Na][T4], Levothyroxine sodium salt pentahydrate, reference compound]	175 °C	without losing their viability	0.49 (×10^−6) cm^2 s^−1	2.04 (×10^−5) cm s^−1
